Experimental data as given in US20210317092A1 (BAYER PHARMA AKTIENGESELLSCHAFT, priority 2016, published 2021).

How the values were obtained:
[1] = test system: IL-1B and des-Arg9-bradykinin (DABK) induced paw oedema; assay: Rat paw oedema in vivo model; conditions: p.o., p < 0.05 versus vehicle (6.45 ± 1.14)
Method: Rat Paw Oedema In Vivo Model
Male Sprague Dawley rats, approximately 250 g body weight, were used. The compound examples were administered orally in the vehicle as described in “Rat CFA in vivo model”, supra. Rats were treated orally (p.o.) with a solution of 5 mL/kg bodyweight of the vehicle only or 5 mL/kg bodyweight of a solution containing the vehicle plus the compound in a dose as indicated in Table 4. Rats received an intraplantar injection of IL-1B (5 μg in 20 μL) and des-Arg9-bradykinin (DABK; 10 μg in 20 μL) at 20 and 40 minutes after compound treatment, respectively. Paw oedema was measured by water displacement using a plethysmometer (Ugo Basile, Gemonio, Italy). Paw oedema measurement was performed before compound administration (baseline) and subsequently at 20, 40 and 60 minutes after DABK injection. Paw oedema was calculated by subtracting the baseline value to post-DABK treatment values for each individual and at each time point. Data were analysed by calculating the area under the paw oedema time curve for each individual (0-60 minutes post-DABK). The effect of the compound example, relative to that of the vehicle, was analysed by performing a one-way ANOVA followed by a Dunnett's post-hoc test. […] The mean and standard deviation were calculated for each treatment group for graphical representations.

[2] = test system: CFA-induced mechanical hyperalgesia; assay: Rat CFA in vivo model (mechanical hyperalgesia, paw withdrawal threshold); conditions: dosed 1 h before CFA and 24 h later, mean ± S.D.
Method: Male Sprague Dawley rats were used. Mechanical hyperalgesia was induced by injecting 25 μL of Complete Freund's Adjuvant (CFA) into the plantar surface of one hind paw. Mechanical hyperalgesia was measured using the Pressure Application Measurement apparatus (Ugo Basile, Gemonio, Italy). Briefly, a linearly increasing pressure was applied to an area of ˜ 50 mm2 of the plantar side of the hind paw until a behavioural response (paw withdrawal) was observed or until the pressure reached 1000 gf. The pressure at which the behavioural response occurred was recorded as the “Paw Withdrawal Threshold” (PWT). Both CFA-injected and contralateral PWTs were determined for each rat, in each treatment group and for the vehicle group at each time point of the studies. Each compound example was administered orally in the vehicle solution of dimethylsulfoxide (DMSO), Polyethylenglycol (PEG) and 2-Hydroxypropyl-beta-cyclodextrin (HPCD) (v/v/v=3:20:77). Rats received a first dose as specified in Table 3 in a solution of 5 mL/kg bodyweight application volume 1 hour before CFA injection and a second dose 24 hours later. Mechanical hyperalgesia testing was performed approximately 2 hours before CFA injection, then 2 and 4 hours after the second dose of compound example (i.e. 26 and 28 hours after CFA treatment). Animals in the vehicle group were treated in the identical way like the other groups but without compound in the orally applied solution. Data were expressed as the mean±S.D. Area Under the Curve (AUC) of PWTs (defined in table 3 as “AUC of Paw withdrawal threshold (AUC 0-4 hours) post-vehicle” with respect to vehicle group or “AUC of Paw withdrawal threshold (AUC 0-4 hours) post-drug” with respect to the compound example). Data were analysed by performing a one-way ANOVA followed by a Dunnett's post hoc test. For p values less than 0.05 the results were deemed to be statistically significant.

With `CCOc1ccc(-c2ccc(NC(=O)C3(c4cccc(Cl)c4)CC3)cc2-c2nnn[nH]2)cn1` [Example 253, 1-(3-Chlorophenyl)-N-[4-(6-ethoxypyridin-3-yl)-3-(1H-tetrazol-5-yl)phenyl]cyclopropanecarboxamide] the “AUC of Paw Oedema (AUC 0-1 hour post DABK)” value ([1]; 10 mg/kg) was 3.24 ± 2.73 (*), the “AUC of Paw Oedema (AUC 0-1 hour post DABK)” value ([1]; 30 mg/kg) was 3.67 ± 2.35 (*) and the “AUC of Paw withdrawal threshold (AUC 0-4 hours) post-drug” value (“AUC of Paw withdrawal threshold” for short) ([2]; 3 mg/kg p.o., p < 0.05 vs vehicle (1083 ± 93 gf)) was 1415 ± 274 gf (*). The “AUC of Paw withdrawal threshold” value ([2]; 10 mg/kg p.o., p < 0.01 vs vehicle (1083 ± 93 gf)) was 1439 ± 310 gf (**) and the “AUC of Paw withdrawal threshold” value ([2]; 30 mg/kg p.o., p < 0.0001 vs vehicle (1083 ± 93 gf)) was 1649 ± 301 gf (***).
